Where two headings read alike, the source gives them in different places.
Assay type: in vivo, Sprague-Dawley rats
Conditions: mean of three rats, liver
Description: The configurational stereoisomers of flocoumafen are separated by high-pressure liquid chromatography using a LUX® Cellulose-4 chiral column (00F-4490-B0, Phenomenex, Le Pecq, France) as stationary phase and a mixture formed from acetonitrile (A) and water comprising 0.1% by volume of formic acid (B), with an A/B volume ratio of 92/8, as mobile phase with a flow rate of the liquid mobile phase in the chromatography column of 0.25 mL/minute. 1 μL of extract comprising flocoumafen at a concentration of 1 μg/mL of acetonitrile is injected. Detection is performed by tandem mass spectrometry (MS/MS) in negative electrospray ionization (ESI) mode. The temperature of the nebulizer gas is 350° C. and its flow rate is 8 L/minute. The pressure of the nebulizer gas is brought to 2700 hPa. In particular, the MRM (“Multiple Reaction Monitoring”) transitions m/z 541.1→382.1 and m/z 541.1→161, corresponding to the flocoumafen signal, are analysed.
Extraction of Flocoumafen from the Liver of Rats Tube-Fed with Flocoumafen
About 0.525 g (±0.025 g) of rat liver is weighed out accurately and placed in a 50 mL polypropylene tube. 10 mL of acetone are added and the suspension is homogenized using an Ultra-Turrax® homogenizer/disperser for a time of about 30 seconds. The homogenizer/disperser shaft is rinsed with hot water and then twice with 20 mL of acetone in a polypropylene tube. The homogenate is centrifuged for 5 minutes at a centrifugation speed of 3000 rpm (revolutions per minute). The supernatant is collected and transferred into a test tube. The sample is subjected to evaporation under a stream of nitrogen (N2) at a temperature of 40° C. so as to form a dry extract.
1 mL of acetonitrile is added to the tube containing the dry extract so as to dissolve it. The acetonitrile solution is washed twice successively with 1 mL of hexane. The lipid-free extract is dried under a stream of nitrogen (N2) at a temperature of 40° C. and is then taken up in 0.5 mL of methanol and dissolved by vortex stirring. 0.5 mL of ultra-pure (Milli-Q) water is then added. The sample is vortex-homogenized.
1 mL of dichloromethane (CH2Ct2), then 1 mL of methanol (CH3OH), then 1 mL of ultra-pure (Milli-Q) water are passed through an Oasis HLB 1 cc cartridge (WAT094225, Waters). The lipid-free liver extract (1 mL MeOH/Milli-Q H2O) containing flocoumafen is then loaded onto the top of the cartridge beforehand. The liver extract penetrates through the cartridge by gravity on contact with the solid phase of the cartridge. 1 mL of washing solution formed from methanol (CH3OH) and ultra-pure water (H2O) in a 90/10 volume proportion is loaded onto the top of the cartridge. The cartridge is dried by suction under vacuum connected to the bottom of the cartridge. 1 mL of eluting solution formed from dichloromethane (CH2Cl2) and methanol (CH3OH) in a 90/10 volume proportion is then loaded onto the top of the cartridge and an eluate comprising flocoumafen is collected at the bottom of the cartridge. The solvent of the eluate is evaporated off under a stream of nitrogen (N2) at a temperature of 40° C. The sample is taken up in 0.5 mL of acetonitrile (NC—CH3) and the acetonitrile solution containing flocoumafen is filtered through a 0.2 μm porosity filter.
Hepatic Persistence of the Configurational Stereoisomers (E1, E2, E3 and E4) of Flocoumafen in Rats
A solution comprising flocoumafen in a mixture of vegetable oil and 5% of DMSO so that the amount of flocoumafen ingested by each rat is about 2.3 mg per kilogram of rat is administered orally (per os) to 8-week-old male and female laboratory rats (Sprague-Dawley rats, Charles River, Saint-Germain-sur-l'Arbresle, France) weighing between 180 and 200 g. The tube-fed rats are treated daily by subcutaneous administration of a dose of vitamin K1 at a rate of 1 U per rat so as to keep the rats alive throughout the experiment. […]

[1] = female rats, D+1 after oral tube-feeding of flocoumafen about 2.3 mg/kg (mixture of 4 stereoisomers)
[2] = female rats, D+3 after oral tube-feeding of flocoumafen about 2.3 mg/kg (mixture of 4 stereoisomers)
[3] = female rats, D+7 after oral tube-feeding of flocoumafen about 2.3 mg/kg (mixture of 4 stereoisomers)
[4] = male rats, D+1 after oral tube-feeding of flocoumafen about 2.3 mg/kg (mixture of 4 stereoisomers)
[5] = male rats, D+3 after oral tube-feeding of flocoumafen about 2.3 mg/kg (mixture of 4 stereoisomers)
[6] = male rats, D+7 after oral tube-feeding of flocoumafen about 2.3 mg/kg (mixture of 4 stereoisomers)

O=c1oc2ccccc2c(O)c1C1CC(c2ccc(OCc3ccc(C(F)(F)F)cc3)cc2)Cc2ccccc21 (single isomer, unassigned) [Enantiomer E1, flocoumafen]
Hepatic concentration [1]: 4585 ng/g | Hepatic concentration [2]: 2692 ng/g | Hepatic concentration [3]: 1196 ng/g | Hepatic concentration [4]: 196 ng/g | Hepatic concentration [5]: 47 ng/g | Hepatic concentration [6]: 0 ng/g

O=c1oc2ccccc2c(O)c1C1CC(c2ccc(OCc3ccc(C(F)(F)F)cc3)cc2)Cc2ccccc21 (single isomer, unassigned) [Enantiomer E2, flocoumafen]
Hepatic concentration [1]: 5396 ng/g | Hepatic concentration [2]: 2522 ng/g | Hepatic concentration [3]: 469 ng/g | Hepatic concentration [4]: 3904 ng/g | Hepatic concentration [5]: 1962 ng/g | Hepatic concentration [6]: 319 ng/g

O=c1oc2ccccc2c(O)c1C1CC(c2ccc(OCc3ccc(C(F)(F)F)cc3)cc2)Cc2ccccc21 (single isomer, unassigned) [Enantiomer E3, flocoumafen]
Hepatic concentration [1]: 5478 ng/g | Hepatic concentration [2]: 2734 ng/g | Hepatic concentration [3]: 1228 ng/g | Hepatic concentration [4]: 3301 ng/g | Hepatic concentration [5]: 1862 ng/g | Hepatic concentration [6]: 647 ng/g

O=c1oc2ccccc2c(O)c1C1CC(c2ccc(OCc3ccc(C(F)(F)F)cc3)cc2)Cc2ccccc21 (single isomer, unassigned) [Enantiomer E4, flocoumafen]
Hepatic concentration [1]: 10342 ng/g | Hepatic concentration [2]: 7765 ng/g | Hepatic concentration [3]: 5054 ng/g | Hepatic concentration [4]: 8143 ng/g | Hepatic concentration [5]: 9906 ng/g | Hepatic concentration [6]: 2623 ng/g

— US10654822B2, “Composition and rodenticidal bait comprising flocoumafen, and process for controlling target rodent pests” (priority 2015, dated 2020)
